Source: patent publication US8778896B2, “Levoisovalerylspiramycin I, II or III, preparations, preparation methods and uses thereof” (Shenyang Tonglian Group Co., Ltd., priority 2010, dated 2014)
In brackets after ≈: the same amount, converted by molar mass.

Experiments:
[1] = test system: staphylococcus aureus12; test: MIC against the infecting test organism; type: cell-based, staphylococcus aureus; conditions: read-out: MIC
[2] = test system: staphylococcus aureus16; test: MIC against the infecting test organism; type: cell-based, staphylococcus aureus; conditions: read-out: MIC
[3] = test system: enterococcus (106); test: Clinical isolates, agar double dilution method; type: cell-based; conditions: 106 clinical isolates of enterococcus; for MIC50: read-out: MIC50; for MIC90: read-out: MIC90
[4] = test system: Chlamydia Pneumoniae CWL-029; test: Chlamydia in vitro MIC, HEp-2 cells, immunofluorescence; type: cell-based; conditions: Chlamydia pneumoniae, 72 h, Chlamydia Pneumoniae CWL-029, HEp-2 cells, read-out: MIC
[5] = test system: Mycoplasma Urealyticum and Mycoplasma Pneumoniae strains; test: Mycoplasma in vitro MIC (U-PPLO broth); type: cell-based; conditions: for MIC: Mycoplasma, determined 4 times, final MIC (24 h), read-out: MIC; for Uu resistant effect: in words
Protocol: 1. Test methods: adding U-PPLO 0.8 ml to each pore of aseptic 12-pore cell culture plate (adding 0.9 ml to inoculum control pore and 1.0 ml to medium control pore).
2. Add 10^4CCU/ml Uu inoculum 0.1 ml to each experimental pore. The final dose in the pore is 10^3CCU/ml (the medium control pore will not be added with inoculum).
3. Divide into 3 groups (100 μg/ml, 10 μg/ml and 1 μg/ml antibiotic stock solution), Use aseptic Tip to add antibiotic for test to each pore: 100 μl, 50 μl, 25 μl, 12.5 μl according to the double degradation concentration gradient. (The inoculum and medium control pores will not be added with the antibiotic, and meanwhile the antibiotic control pore is arranged.)
4. Blend all pores evenly. Seal the culture plate by tapes and place it in a 37[…] box for culture.
5. On 17-24 hours after the test, observe and record the Uu growth situation. When Uu inoculum control pore presents a positive growth, the minimal antibiotic concentration, which can suppress the growth of Uu, is the MIC of sample.

[6] = test system: enterococcus32; test: Curative effect on mouse with abdominal infection (ED50); type: in vivo, enterococcus; conditions: Enterococcus, 168 h, enterococcus32, challenging dose 5.4 × 10^4 CFU/0.5 ml, deaths in 7 days, Bliss, read-out: ED50
Protocol: (§1) Test method: preparation of infection bacterial liquid: taking out the test bacterial liquid which is kept in a refrigerator at −80[…] to room temperature for about 1 h, then inoculating streptococcus pneumonia, pyogenic streptococcus and enterococcus absorbing 0.1 ml bacterial liquid respectively to 2 ml MH broth (add 10% inactivated horse serum), and inoculating 0.1 ml bacterial liquid of staphylococcus aureus to 2 ml MH broth according to the same method above; putting it in an incubator at 37[…] to be cultivated for 18 h, to obtain original bacterial liquid; diluting the original bacterial liquid with 5% gastric mucin to make animals infected with 100% lethal bacteria, to obtain infection bacterial liquid.
(§2) The clinical route of administration of carrimycin is proposed to be oral administration, thus intragastric administration is adopted in carrimychin test. Levoisovalerylspiramycin I (obtained in Embodiment 1) and of crystalline compound of levoisovalerylspiramycin I (prepared in Embodiment 27) are fed to animals via […].
(§3) After the mice are infected, respectively feed each mouse 0.2 ml via intragastric administration at 0.5 to 6 h, and they have no adverse reaction. Observe the number of deaths in 7 days, and calculate the 50% effective dose (ED50) of each drug for the infected mouse and compare the protective effect of drugs by Bliss program.

[7] = test system: staphylococcus aureus21; test: as above; type: in vivo, staphylococcus aureus; conditions: Staphylococcus, AUREUS21, 168 h, staphylococcus aureus21, challenging dose 4.2 × 10^4 CFU/0.5 ml, deaths in 7 days, Bliss, read-out: ED50
Protocol: as §1, §2, §3

[8] = test system: staphylococcus aureus12; test: as above; type: in vivo, staphylococcus aureus; conditions: Staphylococcus, AUREUS12, 168 h, staphylococcus aureus12, challenging dose 4.8 × 10^4 CFU/0.5 ml, deaths in 7 days, Bliss, read-out: ED50
Protocol: as §1, §2, §3

[9] = test system: staphylococcus aureus16; test: as above; type: in vivo, staphylococcus aureus; conditions: Staphylococcus, AUREUS16, 168 h, staphylococcus aureus16, challenging dose 5.2 × 10^3 CFU/0.5 ml, deaths in 7 days, Bliss, read-out: ED50
Protocol: as §1, §2, §3

[10] = test system: staphylococcus aureus76; test: as above; type: in vivo, staphylococcus aureus; conditions: Staphylococcus, AUREUS76, 168 h, staphylococcus aureus76, challenging dose 5.8 × 10^4 CFU/0.5 ml, deaths in 7 days, Bliss, read-out: ED50
Protocol: as §1, §2, §3

[11] = test system: hemophilus influenzae (37); test: Clinical isolates, agar double dilution method; type: cell-based; conditions: 37 clinical isolates of hemophilus influenzae; for MIC50 / MIC90: Haemophilus influenzae; for MIC50: read-out: MIC50; for MIC90: read-out: MIC90
[12] = test system: gonococcus (10); test: Clinical isolates, agar double dilution method; type: cell-based; conditions: 10 clinical isolates of gonococcus; for MIC50: read-out: MIC50; for MIC90: read-out: MIC90
[13] = Acute toxicity on rats via oral administration; conditions: 4500 mg/kg
Protocol: Both mice and rats take drugs orally (levoisovalerylspiramycin I, II and III prepared in Embodiment 1)
After observing the mice and rats for two days before test, and those without abnormal conditions is carried out test. Don't give anything to eat to mice and rats overnight before test. […] […] Observe those taking drugs for one week for toxic reaction and death.

[14] = test system: 12 strains of bacteria; test: Protective effect on mouse infected with 12 strains of bacteria; type: in vivo; conditions: in words
Protocol: as §1, §2, §3

In the case of `COC1C(OC(C)=O)CC(=O)OC(C)C/C=C/C=C/C(OC2CCC(N(C)C)C(C)O2)C(C)CC(CC=O)C1OC1OC(C)C(OC2CC(C)(O)C(OC(=O)CC(C)C)C(C)O2)C(N(C)C)C1O` (stereo not shown) [Levoisovalerylspiramycin II, levoisovalerylspiramycin II], the MIC [1] is reported as 1 µg/mL (≈ 1.03 µM), the MIC [2] is reported as 0.25 µg/mL (≈ 0.258 µM) and the MIC50 [3] is reported as 1 µg/mL (≈ 1.03 µM). For the same compound, the MIC90 [3] was 16 µg/mL (≈ 16.5 µM), the MIC [4] was no more than 0.016 µg/mL and the MIC [5] was 0.025 to 0.125 µg/mL (≈ 0.0258 to 0.129 µM). For the same compound, the Uu resistant effect [5] was “favorable Uu resistant effect”, the ED50 [6] was 70.2 mg/kg and the ED50 [7] was 38.9 mg/kg. The ED50 [8] was 108 mg/kg, the ED50 [9] was 20.9 mg/kg and the ED50 [10] was 22.3 mg/kg. For the same compound, the MIC range [11] was 0.03 to 32 µg/mL, the MIC50 [11] was 0.12 µg/mL (≈ 0.124 µM) and the MIC90 [11] was 1 µg/mL (≈ 1.03 µM). The MIC range [12] was 0.12 to 16 µg/mL, the MIC50 [12] was 1 µg/mL (≈ 1.03 µM) and the MIC90 [12] was 4 µg/mL (≈ 4.13 µM). For the same compound, the LD50 at 1 week ([13]; rat, in vivo, po) was greater than 4500 mg/kg, the “Mortality rate (%)” value ([13]; rat, in vivo, po, 1 week) was 15% and the mortality ([13]; rat, in vivo, po, 1 week) was 3.
With `COC1C(O)CC(=O)OC(C)C/C=C/C=C/C(OC2CCC(N(C)C)C(C)O2)C(C)CC(CC=O)C1OC1OC(C)C(OC2CC(C)(O)C(OC(=O)CC(C)C)C(C)O2)C(N(C)C)C1O` (stereo not shown) [Levoisovalerylspiramycin I, levoisovalerylspiramycin I] the “protective effect (curative effect) on infected mouse” value [14] was “good protective effect”, the MIC [1] was 1 µg/mL (≈ 1.08 µM) and the MIC [2] was 0.5 µg/mL (≈ 0.539 µM). The MIC50 [3] was 1 µg/mL (≈ 1.08 µM), the MIC90 [3] was 32 µg/mL (≈ 34.5 µM) and the MIC [4] was 0.016 µg/mL (≈ 0.0173 µM). The MIC [5] was 0.025 to 0.125 µg/mL (≈ 0.027 to 0.135 µM), the Uu resistant effect [5] was “favorable Uu resistant effect” and the ED50 [6] was 77.5 mg/kg. The ED50 [7] was 42.7 mg/kg, the ED50 [8] was 110 mg/kg and the ED50 [9] was 23.5 mg/kg. For the same compound, the ED50 [10] was 24.4 mg/kg, the MIC range [11] was 0.03 to 32 µg/mL and the MIC50 [11] was 0.12 µg/mL (≈ 0.129 µM). It also gave an MIC90 [11] of 1 µg/mL (≈ 1.08 µM), an MIC range [12] of 0.12 to 16 µg/mL and an MIC50 [12] of 1 µg/mL (≈ 1.08 µM). The MIC90 [12] was 4 µg/mL (≈ 4.31 µM), the LD50 at 1 week ([13]; rat, in vivo, po) was greater than 4500 mg/kg and the “Mortality rate (%)” value ([13]; rats, oral) was 15%. It also gave a mortality ([13]; rats, oral, deaths of 20 animals, observed one week) of 3.
For `CC[C@H]1OC(=O)[C@H](C)[C@@H](O[C@H]2C[C@@](C)(OC)[C@@H](O)[C@H](C)O2)[C@H](C)[C@@H](O[C@@H]2O[C@H](C)C[C@H](N(C)C)[C@H]2O)[C@](C)(O)C[C@@H](C)CN(C)[C@H](C)[C@@H](O)[C@]1(C)O` [azithromycin, reference compound], the MIC [1] was 2 µg/mL (≈ 2.67 µM), the MIC [2] was 0.5 µg/mL (≈ 0.668 µM) and the MIC50 [3] was 8 µg/mL (≈ 10.7 µM). The MIC90 [3] was greater than 64 µg/mL, the MIC [4] was 0.032 µg/mL (≈ 0.0427 µM) and the ED50 [6] was 147 mg/kg. It also gave an ED50 [7] of 143 mg/kg, an ED50 [8] of 120 mg/kg and an ED50 [9] of 32 mg/kg. For the same compound, the ED50 [10] was 58.8 mg/kg, the MIC50 [11] was 0.25 µg/mL (≈ 0.334 µM) and the MIC90 [11] was 2 µg/mL (≈ 2.67 µM). It also gave an MIC range [12] of 0.12 to 64 µg/mL, an MIC50 [12] of 2 µg/mL (≈ 2.67 µM) and an MIC90 [12] of 8 µg/mL (≈ 10.7 µM).
With `CC[C@H]1OC(=O)[C@H](C)[C@@H](O[C@H]2C[C@@](C)(OC)[C@@H](O)[C@H](C)O2)[C@H](C)[C@@H](O[C@@H]2O[C@H](C)C[C@H](N(C)C)[C@H]2O)[C@](C)(O)C[C@@H](C)C(=O)[C@H](C)[C@@H](O)[C@]1(C)O` [erythrocin, reference compound] the MIC [2] was 1 µg/mL (≈ 1.36 µM), the MIC50 [3] was 4 µg/mL (≈ 5.45 µM) and the MIC90 [3] was greater than 64 µg/mL. The MIC [4] was no more than 0.016 µg/mL, the MIC [5] was 5 µg/mL (≈ 6.81 µM) and the Uu resistant effect [5] was “poorest”. For the same compound, the ED50 [6] was 175 mg/kg, the ED50 [7] was 214 mg/kg and the ED50 [8] was 266 mg/kg. The ED50 [9] was 82.4 mg/kg, the ED50 [10] was 64.2 mg/kg and the MIC50 [11] was 0.06 µg/mL (≈ 0.0818 µM). It also gave an MIC90 [11] of 32 µg/mL (≈ 43.6 µM), an MIC range [12] of 0.12 to 64 µg/mL and an MIC50 [12] of 1 µg/mL (≈ 1.36 µM). The MIC90 [12] was 8 µg/mL (≈ 10.9 µM).
In the case of `CCC(=O)OC1CC(=O)OC(C)C/C=C/C=C/C(OC2CCC(N(C)C)C(C)O2)C(C)CC(CC=O)C(OC2OC(C)C(OC3CC(C)(O)C(OC(=O)CC(C)C)C(C)O3)C(N(C)C)C2O)C1OC` (stereo not shown) [Levoisovalerylspiramycin III, levoisovalerylspiramycin III], the MIC [1] is reported as 1 µg/mL (≈ 1.02 µM), the MIC [2] is reported as 0.25 µg/mL (≈ 0.254 µM) and the MIC50 [3] is reported as 2 µg/mL (≈ 2.03 µM). The MIC90 [3] was 64 µg/mL (≈ 65.1 µM), the MIC [4] was 0.016 µg/mL (≈ 0.0163 µM) and the Uu resistant effect [5] was “favorable Uu resistant effect”. For the same compound, the ED50 [6] was 70.2 mg/kg, the ED50 [7] was 38.9 mg/kg and the ED50 [8] was 108 mg/kg. The ED50 [9] was 20.9 mg/kg, the ED50 [10] was 22.3 mg/kg and the MIC range [11] was 0.03 to 32 µg/mL. The MIC50 [11] was 0.12 µg/mL (≈ 0.122 µM), the MIC90 [11] was 1 µg/mL (≈ 1.02 µM) and the MIC range [12] was 0.12 to 16 µg/mL. It also gave an MIC50 [12] of 1 µg/mL (≈ 1.02 µM), an MIC90 [12] of 4 µg/mL (≈ 4.07 µM) and an LD50 at 1 week ([13]; rat, in vivo, po) greater than 4500 mg/kg. The “Mortality rate (%)” value ([13]; rat, in vivo, po, 1 week) was 15% and the mortality ([13]; rat, in vivo, po, 1 week) was 3.
